“Also recorded” adds a separate entry of the source. Read-outs that look alike come from different tables or passages of the source.
Key:
[1] = cited from earlier work; for Dose in humans for anti-anxiety, anti-convulsive, or sedative effects, per day: Table 1, typical daily dose
[2] = test system: GABA-A receptor; details: cited from earlier work; for Effect at GABA-A receptor: Table 1, exemplary benzodiazepines
[3] = test system: mouse genetic models of human Dravet syndrome and idiopathic autism; assay: Summary: low-dose treatment of mouse models of autism; format: in vivo, mice; details: low doses that do not induce sedative or anxiolytic effects
Text: The present disclosure describes methods effective in the rescue or amelioration of autism-like behavior, cognitive deficit, and context-dependent spatial memory.
In particular embodiments, these methods comprise the administration of low doses of a benzodiazepine to a human or other mammalian subject in order to rescue autism-like behavior, cognitive deficit, and context-dependent spatial memory. […] At such low doses, the administration of benzodiazepines, such as CLZ, to mammalian subjects will result in improvement of autism-like behavior, cognitive deficit, and context-dependent spatial learning and memory with much lower levels of sedation compared to mammalian subjects who receive typical higher doses of CLZ or other benzodiazepines that are used for treatment of anxiety, insomnia, or seizure.
The present disclosure is also directed to methods of rescuing or ameliorating indicia of Autism Spectrum disorders, autism-like behavior, cognitive deficit, and context-dependent spatial learning and memory in Dravet syndrome or idiopathic autism with α-2,3-specific GABA-A receptor positive allosteric modifiers. Such α-2,3-subunit selective GABA-A receptor positive allosteric modifiers include L838,417.
Therapeutic approaches to treat autistic traits in animal studies or in clinical trials have primarily focused on reducing excitatory neurotransmission in glutamatergic synapses to rebalance E/I ratio in autistic brain (Michalon et al., 2012; Yang et al., 2012). However, autistic-like behaviors in ASD mouse models are only partially reversed by drugs that inhibit excitatory neurotransmission, and these drugs also have unwanted side effects on wild-type mice (Henderson et al., 2012; Michalon et al., 2012; Yang et al., 2012). To overcome these drawbacks, the inventors focused on the opposing side, the GABAergic inhibitory transmission in autistic brain. Their results highlight the potential for therapy of autistic-like behaviors and cognitive deficit in ASD by low-dose treatment with subunit-selective benzodiazepines and other positive allosteric modulators of GABA-A receptors. […] It is possible that the biphasic dose-response relationship of the positive allosteric modulators reflects their actions on receptors containing α2,3 subunits at low doses and on receptors containing α1 subunits at higher doses.

[4] = test system: BTBR mice; assay: Three-chamber social interaction test; details: for social interaction (time with stranger mouse, close interaction), dose series: single i.p. injection 30 min before test, low/increasing doses
Protocol: In the three-chamber test, a test mouse is placed in the center chamber, and the preference of the test mouse for interaction with an inanimate object (a small empty cage) in the left chamber vs. a stranger mouse in an identical cage in the right chamber using a digital camera and quantitative video-tracking analysis.
(§1) The test was performed as described previously (Han et al., 2012) with minor modifications. The threechamber apparatus is a non-transparent Plexiglas box (30×60 cm) with two transparent partitions that make left, center, and right chambers (30×20 cm). In the first 10-min session, a test mouse was placed in the center of the empty three-chamber unit to habituate the test mouse. The mouse was allowed to freely explore each chamber. In the second 10-min session, an age- and gender-matched same strain mouse that had never been exposed to the test mouse, was placed in one of the two wire cages. The empty wire cage as an inanimate object cue was placed on the other side. Then, the test mouse was placed again in the center, and allowed to freely explore the chamber for 10 min. Time spent in each chamber, and time spent within a 5 cm radius proximal to each wire cage, as a close interaction were measured by the videotracking software (EthoVision XT 8.5, Noldus Technology). All data shown are means±s.e.m. and analyzed using two-way ANOVA with Bonferroni's post hoc analysis and one-way ANOVA with Tukey's post hoc analysis.
(§2) L-838,417, and DMCM (Sigma), dissolved in 100% DMSO (sterile, Sigma) was diluted in PBS (the final concentration of DMSO was ranged from 0.005% to 0.1%). Drugs were administered by an intraperitoneal injection in a volume of […] 30 min before the behavioral tests.

[5] = test system: C57BL/6J mice; assay: Three-chamber social interaction test; format: in vivo
Text: The mouse was allowed to freely explore each chamber.

[6] = test system: BTBR mice; assay: Open field test; format: in vivo; details: clobazam 0.05 mg/kg
Protocol: (§3) Open field test was performed as previously described (Han et al., 2012). 50×50 cm square open field arena with non-transparent white Plexiglas was used in this study. During the 10 min of trial, total distance moved, circling behavior (a complete 360-degree turn of nose angle with respect to the body center) and time in center (20×20 cm imaginary square) were measured by the video-tracking software (EthoVision XT 8.5, Noldus Technology).

[7] = test system: C57BL/6J mice; assay: Elevated plus maze test; format: in vivo; details: 0.2 mg/kg
Protocol: The test was performed as previously described (Han et al., 2012). The maze used in this study has two closed arms (5.1×30 cm) surrounded by 20-cm high non-transparent walls and two open arms (5.1×30 cm). During the 10 min of trial, times spent in closed, center, and open arms, and total distance traveled during the trial were measured by the video-tracking software (EthoVision XT 8.5, Noldus Technology).

[8] = test system: C57BL/6J mice; assay: Open field test; format: in vivo; details: 0.2 mg/kg
Protocol: as §3

[9] = in vivo; cited from earlier work
[10] = test system: BTBR mice; assay: Context-dependent fear conditioning test; format: in vivo; details: 0.05 mg/kg
Text: The contextual fear-conditioning chamber was a square arena (25×25 cm) with clear PLEXIGLAS™ walls and a metal grid floor connected to a circuit board that delivered shocks to the metal grid (COULBOURN INSTRUMENTS™). An analog camera was attached on top of the chamber. The camera and the circuit board were connected to a personal computer, and its software (FREEZE FRAME™ 2.0, ACTIMETRICS™) controlled the circuit and recorded the data. The chamber was cleaned with 70% ethanol and wiped with paper towels before each session. In the habituation session, a test mouse was placed in the chamber and allowed to explore for 2 min^66-69. Immediately after habituation, the test mouse received a single mild foot shock (2 s, 0.5 mA). After staying in the chamber one more min, the mouse was removed from the chamber. For the 30-min short-term memory test, the mouse was returned to the context 30 min after the end of the training session. For 24-hr long-term memory test, the mouse was returned to the context 24 hr after the training session. The movement of mice was also recorded by a USB webcam (LIFECAM™ HD-6000, MICROSOFT™) and PC-based video capture software (WINAVI™ Video Capture, ZJ MEDIA DIGITAL TECHNOLOGY™) for 2 min. The recorded video file was further analyzed by off-line video tracking software (ETHOVISION™ XT 7.0, NOLDUS TECHNOLOGY™). The freezing scores were calculated by dividing the test session into 1 min bouts and averaging together all 2 min for each animal. All data shown.
Freezing behavior is defined as the period during which the velocity of the test mouse is less than 1.75 cm/s, and non-freezing behavior is defined as the period during which the velocity of the mouse is greater than 2 cm/s.

[11] = test system: Scn1a+/− mice; assay: Three-chamber social preference test; format: in vivo; details: low doses, narrow dose range (FIGS. 41N, 41O)
Text: The mouse was allowed to freely explore each chamber. […] The recorded video file was further analyzed by off-line video tracking software (ETHOVISION™ XT 7.0). […] All data shown are means±s.e.m. and analyzed using two-way ANOVA with Bonferroni's post hoc analysis and one-way ANOVA with Tukey's post hoc analysis.
Oral administration is specifically contemplated for the methods described herein, and is well known for both benzodiazepines and non-BDZ GABA-A enhancers as described herein.
as §1, §2

## CN1C(=O)CC(=O)N(c2ccccc2)c2cc(Cl)ccc21 [Clobazam]
[1]; Table 1, values marked *
  Dose in humans for anti-anxiety, anti-convulsive, or sedative effects: equivalent dose to 10 mg diazepam: 20 mg
[2]
  Effect at GABA-A receptor: Agonist
[3]
  autistic-like behaviors and cognitive deficit in BTBR mice (summary): improved
[4]; 0.05 mg/kg (low dose) 30 min before test
  social interaction deficit: ameliorated social interaction deficits
[4]; FIG. 9
  time in the chamber with the stranger mouse: increased
  time of interaction with the stranger mouse: increased
[4]
  social interaction (time with stranger mouse, close interaction), dose series: increases
[5]; clobazam, FIG. 9
  social interaction of control mice: no effect
[6]
  anxiolytic effect (time spent in center): without sedative (FIG. 41C) or anxiolytic effects
  sedative effect (total distance moved): without sedative

## CCc1c(C(=O)OC)ncc2[nH]c3cc(OC)c(OC)cc3c12 [DMCM]
[7]
  anxiety levels (time in the open arms): not altered
  number of entries in the open arms: unchanged
[5]; 0.2 mg/kg single injection 30 min prior
  normal social interaction behavior: impaired; also recorded: substantially reduced
[8]
  general locomotor behavior (distance moved): not altered
  time spent in center: unaltered

## CN1C(=O)CN=C(C2=CCCCC2)c2cc(Cl)ccc21 [Tetrazepam]
[1]
  Dose in humans for anti-anxiety, anti-convulsive, or sedative effects, per day: 50 to 300 mg/day
[1]; Table 1, values marked *
  Dose in humans for anti-anxiety, anti-convulsive, or sedative effects: equivalent dose to 10 mg diazepam: 100 mg
[2]
  Effect at GABA-A receptor: Agonist

## CCC1C(C)=NN=C(c2ccc(OC)c(OC)c2)c2cc(OC)c(OC)cc21 (stereo not drawn) [Tofisopam]
[1]
  Dose in humans for anti-anxiety, anti-convulsive, or sedative effects, per day: Typical dose 50- 300 mg/day in divided doses
[2]
  Effect at GABA-A receptor: Agonist

## Cc1nnc2n1-c1ccc(Cl)cc1C(c1ccccc1Cl)=NC2 [Triazolam]
[9]
  half-life: 2 to 3 h
[1]; Table 1, values marked *
  Dose in humans for anti-anxiety, anti-convulsive, or sedative effects: equivalent dose to 10 mg diazepam: 0.25 mg
[2]
  Effect at GABA-A receptor: Agonist

## CCN(C(C)=O)c1cccc(-c2ccnc3c(C#N)cnn23)c1 [Zaleplon]
[1]; Table 2
  Dose in humans for anti-anxiety, anti-convulsive, or sedative effects (marked *): 20 mg
[2]; Table 2, exemplary SS-PAMs
  Effect at GABA receptor: Full agonist α1 selective Acts on α2,3 at higher doses Ultra short- acting

## CN1CCN(C(=O)OC2c3nccnc3C(=O)N2c2ccc(Cl)cn2)CC1 (stereo not drawn) [Zopiclone]
[1]; Table 4, values marked *
  Dose in humans for anti-anxiety, anti-convulsive, or sedative effects: equivalent dose to 10 mg diazepam: 15 mg
[2]; Table 4, exemplary non-BDZ GABA-A enhancers
  Effect at GABA receptor: Full agonist

## Cc1ccc(-c2nc3ccc(C)cn3c2CC(=O)N(C)C)cc1 [zolpidem]
[10]
  long-term (24 h) memory: not long-term memory
  short-term (30 min) memory: enhanced short-term memory
[3]
  autistic-like behaviors and cognitive deficit in BTBR mice (summary): opposite effects
[4]; 0.5 mg/kg
  social behavior (close interaction): made social behavior worse
[4]; dose range up to 0.5 mg/kg (clonazepam: test doses)
  sedation / total distance moved during the three-chamber test: dose-dependently decreased
[4]; high doses, zolpidem 0.5 mg/kg
  total movement during the three-chamber test at high dose: significantly decreased
[4]; higher doses
  effect on social interaction at doses above the maximally effective dose: aggravated their social interaction deficit at high doses
[4]
  social interaction (time with stranger mouse, close interaction), dose series: failed to show beneficial effects
[4]; listed as Zolpidem
  social interaction (time with stranger mouse, close interaction), dose series: failed to rescue social deficit
[5]; L-838,417 / zolpidem (FIGS. 45I, 45J)
  social behavior, dose series: dose-dependently impaired
[5]; high dose
  social behavior at high dose: impaired
[11]
  social interactions in three-chamber test: not effective
